# In patent US20130137757A1 (priority 2010, published 2013):
# Tests used:
# [1] = test system: influenza viruses A/PR/8/34 (H1N1 type) strain; assay: hemagglutination inhibition test; format: cell-based, influenza virus; conditions: guinea pig red blood cell suspensions, A/PR/8/34 (H1N1) strain, in PBS
# [2] = test system: influenza viruses A/Memphis/1/71 (H3N2 type) strain; assay: hemagglutination inhibition test; format: cell-based, influenza virus; conditions: guinea pig red blood cell suspensions, A/Memphis/1/71 (H3N2) strain, in PBS
substance,measurement,setting,value
deoxyribonucleic acid [DNA],hemagglutination (visual and microscopic observation),[1],strong hemagglutination was observed
same,hemagglutination (visual and microscopic observation),[2],strong hemagglutination was observed
